Data taken from PMC9027509, “Modulation of Paracellular-like Drug Transport across an Artificial Biomimetic Barrier by Osmotic Stress-Induced Liposome Shrinking” (Pharmaceutics, 2022).

Experiments:
Format in all cases: in vitro ADME
[1] = Permeation across PermeaPad barrier, reversed Franz cell setup, after NaCl pretreatment; conditions: for Papp: permeation in 300 mOsm PBS pH 6.5, 37 °C, mean ± SD, read-out: Permeability across PermeaPad®; for Papp, mean: supplement raw data, mean of replicates A-C; for Increase of apparent permeability across the PermeaPad® barrier upon hypo-osmotic pretreatment: hypo-osmotic pretreatment (soaking in hypotonic medium); for Increase of permeability in PBS across PermeaPad®: pretreated with NaCl solutions of 50, 150, or 900 mOsm/kg compared to 300 mOsm/kg; for Change of permeability across PermeaPad® after hyper-osmotic pretreatment (in words): pretreatment with 900 mOsm/kg NaCl solution versus 300 mOsm, p < 0.05
Experimental: (§1) During these studies, phosphate-buffered saline (PBS) was used as the acceptor medium and for the preparation of donor media for permeation experiments. The liposomes were allowed to form within the barrier by soaking the dry sandwich barrier (PermeaPad) in hypo-, iso-, or hyper-osmotic media and compared to the PBS by using NaCl solutions of different osmolalities. PBS was prepared by dissolving 35 mM sodium phosphate dibasic dihydrate and 75 mM sodium phosphate monobasic monohydrate in water. Then, the pH was adjusted to 6.5 by adding 0.1 M HCl or 0.1 M NaOH. Finally, the osmolality was measured on a semi-micro osmometer K-7400 from KNAUER Wissenschaftliche Geräte GmbH (Berlin, Germany), and NaCl was added to obtain an osmolality of 300 mOsm. Solutions of NaCl were prepared by dissolving NaCl in purified water to obtain osmolalities of 50, 150, 250, 300, 350, 450 and 900 mOsm.
(§2) The acyclovir solution was prepared by dissolving 1 mg/mL acyclovir in PBS. […] The stock of calcein was prepared by dissolving 2.8 g calcein in 30 mL water before adjusting the pH to 6.5 with 4 M NaOH (~20 mL), and the osmolality of the stock was adjusted to 300 mOsm with NaCl. […] The saturated celecoxib suspensions were prepared by suspending 1 mg/mL of celecoxib in PBS. The suspension was then sonicated for 10 min and left in the shaking water bath at 50 rpm and 37 °C for 40 h before starting the permeation experiments.
(§3) For the permeation experiments, we used the reversed Franz cell setup from Permegear (Hellertown, PA, USA) with the donor in the bottom chamber (8 mL) and the acceptor in the top chamber (2 mL). The two compartments were either separated by PermeaPad® or a sandwich consisting of two pieces of the support sheet representing the support layer of PermeaPad® (with no lipids). The barriers were kindly donated by InnoMe GmbH (Espelkamp, Germany). A cylindrical stir bar (2 mm diameter × 8 mm length) was spinning at 500 rpm at the bottom of the donor compartment. The temperature of the Franz cells was kept constant at 37 °C by a circulating water system.
(§4) Prior to the permeation experiments, the barrier was exposed to NaCl solutions ranging from 50 to 900 mOsm for 30 min by simply adding 2 mL of the NaCl solution to the top compartment. The NaCl solutions were removed from the top compartment right before initiating the permeation experiments.
(§5) For the permeation experiments, the system was kept assembled after the NaCl pretreatment, and the bottom compartment was filled with 8 mL of donor solution/suspension, followed by the addition of 2 mL PBS to the top compartment. […] All samples were replaced by the same volume of PBS to keep the acceptor volume constant and to maintain sink conditions. Before and after experiments, donor samples were withdrawn to keep track of the mass balance (see the Supplementary Materials).
(§6) The column temperature was 40 °C during measurement. […] All quantification was with a freshly prepared calibration curve in the relevant range.
(§7) The flux was determined by plotting the cumulative amount of a drug compound permeation (dQ) normalized to the permeation area (A) (1 cm^2) against time (dt), with the flux (J) equal to the slope. (1) J=dQ/A·dt
(§8) We assumed that the change in the donor concentration over the experiments was negligible. The apparent permeability (Papp) was equal to the flux normalized to the starting donor concentration (C0). (2) Papp=J/C0

[2] = Permeation across lipid-free support sheets (support layer of PermeaPad), reversed Franz cell setup; conditions: for Papp: 300 mOsm PBS pH 6.5, 37 °C, mean ± SD, read-out: Permeability across support layer; for Papp, mean: supplement raw data, Support sheet, 30 min pretreatment, mean of replicates A-C
Experimental: as §1, §2, §3, §4, §5, §6, §7, §8

[3] = Permeability across the lipid layer of PermeaPad calculated from Papp and Psup (Equation 3); conditions: for Papp: not told, calculated 1/Papp=1/Plip+1/Psup; for Permeation across lipid layer, fold higher with 50 mOsm/kg pretreatment: 50 mOsm/kg versus 300 mOsm/kg NaCl pretreatment
Source text: The permeation across the lipid layer (Plip) has been calculated using Equation (3) (Di Cagno et al., 2015). The inverse of each permeability constant represents the resistance. The sum of the resistance of the lipid layer and the support layer (Psup) composing the PermeaPad® barrier gives the resistance of the whole barrier. (3) 1/Papp=1/Plip+1/Psup

[4] = pH 6.5, barrier pretreated 30 min with 50 mOsm/kg NaCl solution
[5] = pH 6.5, barrier pretreated 30 min with 300 mOsm/kg NaCl solution
[6] = PermeaPad, osmolality 50, 30 min pretreatment
[7] = PermeaPad, osmolality 150, 30 min pretreatment
[8] = PermeaPad, osmolality 300, 30 min pretreatment
[9] = PermeaPad, osmolality 450, 30 min pretreatment
[10] = PermeaPad, osmolality 900, 30 min pretreatment
[11] = pH 6.5, pretreated 30 min with 50 mOsm/kg NaCl solution
[12] = pH 6.5, pretreated 30 min with 300 mOsm/kg NaCl solution
[13] = pH 6.5, pretreatment with 50 mOsm/kg NaCl solution
[14] = pH 6.5, pretreatment with 300 mOsm/kg NaCl solution

| Papp [1, 4] | Papp [1, 5] | Papp, mean [1, 6] | Papp, mean [1, 7] | Papp, mean [1, 8] | Papp, mean [1, 9] | Papp, mean [1, 10] | Papp [2, 11] | Papp [2, 12] | Papp, mean ([2]; osmolality 50) | Papp, mean ([2]; osmolality 300) | Papp [3, 13] | Papp [3, 14] | Increase of apparent permeability across the PermeaPad® barrier upon hypo-osmotic pretreatment [1] | Increase of permeability in PBS across PermeaPad® [1] | Change of permeability across PermeaPad® after hyper-osmotic pretreatment (in words) [1] | Permeation across lipid layer, fold higher with 50 mOsm/kg pretreatment [3] | Structure (SMILES) | further results |
| --- | --- | --- | --- | --- | --- | --- | --- | --- | --- | --- | --- | --- | --- | --- | --- | --- | --- | --- |
| 17.9 ± 7.48 ×10⁻⁶ cm/s | 15.9 ± 4.99 ×10⁻⁶ cm/s | 17.95 10-6 | 12.5 10-6 | 15.92 10-6 | 16.62 10-6 | 17.85 10-6 | 46.3 ± 2.23 ×10⁻⁶ cm/s | 46.2 ± 2.74 ×10⁻⁶ cm/s | 46.3348 10-6 | 46.16 10-6 | 34.2 ± 18.1 ×10⁻⁶ cm/s | 26.2 ± 11.2 ×10⁻⁶ cm/s |  |  |  |  | Cc1ccc(-c2cc(C(F)(F)F)nn2-c2ccc(S(N)(=O)=O)cc2)cc1 [Celecoxib, celecoxib] | Change of permeability across PermeaPad® with different pretreatments (in words) ([1]; NaCl pretreatment solutions from 50 to 900 mOsm/kg compared to 300 mOsm/kg): no significant changes; Change of permeation across PermeaPad® upon hypo-osmotic pretreatment (in words) ([1]; hypo-osmotic pretreatment): remained unchanged |
| 0.61 ± 0.04 ×10⁻⁶ cm/s | 0.35 ± 0.01 ×10⁻⁶ cm/s | 0.6055 10-6 | 0.6047 10-6 | 0.3505 10-6 | 0.3884 10-6 | 0.5604 10-6 | 2.51 ± 0.3 ×10⁻⁶ cm/s | 2.84 ± 0.54 ×10⁻⁶ cm/s | 2.509 10-6 | 2.835 10-6 | 0.8 ± 0.07 ×10⁻⁶ cm/s | 0.4 ± 0.02 ×10⁻⁶ cm/s | approximately 2.0 fold | 1.5–2 fold | increased significantly | 2.0 fold | O=C(O)CN(CC(=O)O)Cc1cc2c(cc1O)Oc1cc(O)c(CN(CC(=O)O)CC(=O)O)cc1C21OC(=O)c2ccccc21 [Calcein, calcein] | Difference in permeation across PermeaPad® between 2 and 30 min pretreatment ([1]; 50 and 300 mOsm/kg NaCl solutions, p > 0.05): no significant differences; Papp, mean ([1]; PermeaPad (2 min pretreatment), osmolality 50): 0.5524 10-6; Papp, mean ([1]; PermeaPad (2 min pretreatment), osmolality 300): 0.3418 10-6; Papp, mean ([1]; PermeaPad, osmolality 250, 30 min pretreatment): 0.3074 10-6; Papp, mean ([1]; PermeaPad, osmolality 350, 30 min pretreatment): 0.3633 10-6 |
| 4.07 ± 0.6 ×10⁻⁶ cm/s | 2.52 ± 0.33 ×10⁻⁶ cm/s | 4.068 10-6 | 3.864 10-6 | 2.527 10-6 | 3.76 10-6 | 4.675 10-6 | 32.7 ± 1.87 ×10⁻⁶ cm/s | 33.2 ± 1.79 ×10⁻⁶ cm/s | 32.67 10-6 | 33.19 10-6 | 4.71 ± 0.78 ×10⁻⁶ cm/s | 2.74 ± 0.38 ×10⁻⁶ cm/s | ~1.7 fold | 1.5–2 fold | increased significantly | 1.7 fold | Nc1nc2c(ncn2COCCO)c(=O)[nH]1 [Acyclovir, acyclovir] |  |
